The target of test [1] is Vascular endothelial growth factor receptor 1 (Homo sapiens) (UniProt P17948). Put plainly: Percent inhibition of Vascular endothelial growth factor receptor 1 at 10 uM.
The target in test [2] is Vascular endothelial growth factor receptor 2 (Homo sapiens, UniProt P35968). Put plainly: Inhibition of Vascular endothelial growth factor receptor 2 kinase phosphorylation of pGAT-biotin peptide.

Where only a bound is given, the exact number is not on record here.

Usually inhibition stands for the share of the control response that was lost under treatment. A higher inhibition goes with a response far below the control. In general, IC50 refers to the concentration that gives 50% inhibition. High values mean weaker potency in that assay, low ones greater potency in that assay.

Sequence of Vascular endothelial growth factor receptor 2 (P35968 whole entry): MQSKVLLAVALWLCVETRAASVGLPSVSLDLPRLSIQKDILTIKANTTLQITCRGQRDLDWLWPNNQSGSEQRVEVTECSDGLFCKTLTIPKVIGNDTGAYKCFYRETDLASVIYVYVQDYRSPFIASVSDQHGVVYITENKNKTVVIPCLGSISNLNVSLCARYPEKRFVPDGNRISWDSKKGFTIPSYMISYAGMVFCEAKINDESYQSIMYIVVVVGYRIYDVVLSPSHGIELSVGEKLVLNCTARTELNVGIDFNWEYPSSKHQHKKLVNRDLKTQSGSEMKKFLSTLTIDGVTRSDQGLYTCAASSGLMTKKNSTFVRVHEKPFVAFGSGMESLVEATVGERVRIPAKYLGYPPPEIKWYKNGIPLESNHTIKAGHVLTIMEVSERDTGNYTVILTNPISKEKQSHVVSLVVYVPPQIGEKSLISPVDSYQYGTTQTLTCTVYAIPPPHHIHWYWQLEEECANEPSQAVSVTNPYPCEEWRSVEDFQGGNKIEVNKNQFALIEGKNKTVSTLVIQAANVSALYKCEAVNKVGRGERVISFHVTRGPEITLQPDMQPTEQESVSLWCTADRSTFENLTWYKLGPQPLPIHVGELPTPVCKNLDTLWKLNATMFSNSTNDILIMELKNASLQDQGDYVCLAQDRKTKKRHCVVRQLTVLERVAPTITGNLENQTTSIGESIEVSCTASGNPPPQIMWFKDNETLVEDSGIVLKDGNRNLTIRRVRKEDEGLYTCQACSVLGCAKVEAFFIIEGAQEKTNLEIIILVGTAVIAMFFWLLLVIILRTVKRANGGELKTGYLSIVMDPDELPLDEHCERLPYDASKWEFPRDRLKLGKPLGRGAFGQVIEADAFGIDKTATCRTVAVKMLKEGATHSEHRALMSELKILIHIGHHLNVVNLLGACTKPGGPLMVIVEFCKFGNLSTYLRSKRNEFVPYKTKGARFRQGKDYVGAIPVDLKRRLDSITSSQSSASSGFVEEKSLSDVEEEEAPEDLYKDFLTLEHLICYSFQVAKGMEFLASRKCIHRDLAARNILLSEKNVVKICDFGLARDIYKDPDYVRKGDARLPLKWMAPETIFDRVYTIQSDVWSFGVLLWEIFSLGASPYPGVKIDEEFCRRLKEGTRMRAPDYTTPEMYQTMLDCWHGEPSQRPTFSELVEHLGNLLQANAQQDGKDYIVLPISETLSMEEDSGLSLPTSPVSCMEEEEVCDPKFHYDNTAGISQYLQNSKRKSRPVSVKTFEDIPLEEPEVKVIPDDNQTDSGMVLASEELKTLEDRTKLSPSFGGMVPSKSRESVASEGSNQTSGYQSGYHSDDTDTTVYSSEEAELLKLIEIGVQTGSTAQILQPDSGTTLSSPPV
Sequence of Vascular endothelial growth factor receptor 1 (Homo sapiens) (P17948 whole entry): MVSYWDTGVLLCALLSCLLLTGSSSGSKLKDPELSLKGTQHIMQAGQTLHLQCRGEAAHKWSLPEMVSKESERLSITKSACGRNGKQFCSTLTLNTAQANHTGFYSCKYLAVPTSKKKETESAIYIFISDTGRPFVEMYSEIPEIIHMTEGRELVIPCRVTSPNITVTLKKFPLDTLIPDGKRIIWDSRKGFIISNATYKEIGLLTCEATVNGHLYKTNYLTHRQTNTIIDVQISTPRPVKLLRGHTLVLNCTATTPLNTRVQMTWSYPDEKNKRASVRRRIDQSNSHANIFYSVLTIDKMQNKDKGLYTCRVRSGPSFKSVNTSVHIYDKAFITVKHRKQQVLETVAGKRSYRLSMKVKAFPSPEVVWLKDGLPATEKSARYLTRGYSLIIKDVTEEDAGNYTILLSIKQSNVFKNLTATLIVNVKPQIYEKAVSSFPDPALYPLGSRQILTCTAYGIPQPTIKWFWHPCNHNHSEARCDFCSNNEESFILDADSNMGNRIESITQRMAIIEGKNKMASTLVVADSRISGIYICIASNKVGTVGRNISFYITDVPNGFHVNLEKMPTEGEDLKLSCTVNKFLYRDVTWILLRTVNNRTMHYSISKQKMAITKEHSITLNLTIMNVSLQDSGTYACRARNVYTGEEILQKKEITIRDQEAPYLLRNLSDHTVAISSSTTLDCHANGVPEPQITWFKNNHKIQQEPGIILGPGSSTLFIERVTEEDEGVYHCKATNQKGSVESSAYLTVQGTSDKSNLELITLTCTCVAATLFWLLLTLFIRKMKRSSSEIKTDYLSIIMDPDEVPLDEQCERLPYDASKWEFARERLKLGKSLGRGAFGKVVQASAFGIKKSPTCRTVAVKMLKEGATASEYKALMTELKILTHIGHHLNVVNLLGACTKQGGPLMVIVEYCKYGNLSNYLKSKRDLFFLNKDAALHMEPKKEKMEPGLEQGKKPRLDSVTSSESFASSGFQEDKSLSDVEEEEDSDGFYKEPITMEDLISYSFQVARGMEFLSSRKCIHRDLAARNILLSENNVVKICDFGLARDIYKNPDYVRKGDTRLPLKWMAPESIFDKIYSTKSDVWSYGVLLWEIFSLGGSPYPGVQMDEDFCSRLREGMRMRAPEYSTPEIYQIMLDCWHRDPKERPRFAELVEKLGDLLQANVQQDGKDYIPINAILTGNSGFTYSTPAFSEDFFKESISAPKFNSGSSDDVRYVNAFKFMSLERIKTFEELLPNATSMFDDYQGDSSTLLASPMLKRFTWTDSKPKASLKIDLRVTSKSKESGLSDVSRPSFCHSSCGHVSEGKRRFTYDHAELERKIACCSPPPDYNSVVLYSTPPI

As to `NC(=O)c1ccc(-c2nnc(Nc3cccc(Br)c3)c3ccccc23)cc1`, the inhibition in test [1] came to 51%.

Take `CC(C)(C)c1ccc(Nc2nnc(-c3ccc(C(N)=O)cc3)c3ccccc23)cc1`: in test [1], the inhibition is 73%. Same read-out and setting: the result for `NC(=O)c1ccc(-c2nnc(Nc3ccc(Br)cc3)c3ccccc23)cc1` reads 53%.

In test [2], `CCOc1ccc(-c2nnc(Nc3ccc(C)cc3)c3ccccc23)cc1` showed an IC50 of over 10 µM.

`CC(C)(C)c1cccc(Nc2nnc(-c3ccc(C(N)=O)cc3)c3ccccc23)c1`: in test [1], the inhibition came out at 60%.

For `COc1ccc(Nc2nnc(-c3ccc(C(N)=O)cc3)c3ccccc23)cc1`, in test [2], the concentration for half-maximal inhibition (IC50) worked out at 2 µM. `O=C(NCCO)c1ccc(-c2nnc(Nc3ccc(OC(F)(F)Cl)cc3)c3ccccc23)cc1` registered a 50% inhibitory concentration (IC50) in test [2] of 1.1 µM.

In test [2], `CC(C)(C)NC(=O)c1ccc(-c2nnc(Nc3ccc(OC(F)(F)Cl)cc3)c3ccccc23)cc1` registered an IC50 of over 10 µM. Still for that read-out and setting: as for `NC(=O)c1ccc(-c2nnc(Nc3ccc(S(N)(=O)=O)cc3)c3ccccc23)cc1`, the figure is over 10 µM; as for `Cc1ccc(-c2nnc(Nc3ccc(OC(F)(F)Cl)cc3)c3ccccc23)cc1S(=O)(=O)NC(C)C`, over 10 µM.

For the origin of these results see ChEMBL document CHEMBL1143454, “Arylphthalazines: identification of a new phthalazine chemotype as inhibitors of VEGFR kinase” (Bioorg Med Chem Lett, 2005).
